In patent US12029739B2, “SHP2 inhibitor and use thereof” (KANAPH THERAPEUTICS INC., priority 2021, dated 2024):
Where two headings read alike, the source gives them in different places.

What was measured:
SHP2 (full length) = molecular target: T1, SHP2 (full length) (Homo sapiens, UniProt Q06124); assay: Phosphatase assay (PTPase assay) with DiFMUP substrate; type: biochemical; conditions: SHP2 activated with SHP2 activating peptide, DiFMUP 80 μM, 2 hours, fluorescence
T1 construct: SHP2 (full length, diluted to 100 pM final concentration in reaction buffer, BPS bioscience, US); purchased BPS bioscience, US
T1 sequence (Q06124 1-593): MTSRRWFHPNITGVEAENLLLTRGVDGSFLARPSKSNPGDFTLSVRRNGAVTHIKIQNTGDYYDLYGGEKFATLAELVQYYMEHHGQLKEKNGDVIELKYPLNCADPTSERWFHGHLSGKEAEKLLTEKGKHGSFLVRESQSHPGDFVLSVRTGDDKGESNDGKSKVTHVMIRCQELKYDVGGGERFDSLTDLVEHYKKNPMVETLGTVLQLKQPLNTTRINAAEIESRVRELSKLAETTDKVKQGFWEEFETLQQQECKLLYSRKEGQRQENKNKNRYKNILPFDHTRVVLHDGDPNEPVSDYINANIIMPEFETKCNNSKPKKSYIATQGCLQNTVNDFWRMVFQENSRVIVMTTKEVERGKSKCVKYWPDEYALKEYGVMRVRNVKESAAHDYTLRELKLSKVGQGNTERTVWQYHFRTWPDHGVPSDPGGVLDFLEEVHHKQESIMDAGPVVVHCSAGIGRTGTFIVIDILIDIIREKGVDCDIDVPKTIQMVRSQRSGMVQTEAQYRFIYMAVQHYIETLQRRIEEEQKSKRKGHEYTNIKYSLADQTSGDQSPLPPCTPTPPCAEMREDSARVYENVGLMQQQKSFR

[1] = tested on: phospho-ERK in MIA PaCa2 or H358 cells; assay: Phospho-ERK assay (AlphaLisa); type: cell-based
[2] = 1.5 h, MIA PaCa2 or H358 cells, compound incubated 1.5 hours, read-out: IC50 (p-ERK)
[3] = MIA PaCa2 or H358 cells, compound incubated 1.5 hours, read-out: IC50 (p-ERK)
[4] = 1.5 h, read-out: IC50 (p-ERK, nM)

| SMILES | IC50 (SHP2 (full length); read-out: IC50 (PTPase aS say)) | IC50 [1, 2] | IC50 [1, 3] | IC50 (SHP2 (full length); IC50 (PTPase aS say, nM)) | IC50 [1, 4] |
| --- | --- | --- | --- | --- | --- |
| C[C@@H]1OCC2(CCN(c3cnc(Sc4ccc5nc(Cc6cccnc6)[nH]c5c4Cl)cn3)CC2)[C@@H]1N [Example 137, (3S,4S)-8-(5-((7-chloro-2-(pyridin-3-ylmethyl)-1H-benzo[d]imidazol-6-yl)thio)pyrazin-2-yl)-3-methyl-2-oxa-8-azaspiro[4.5]decan-4-amine] | 3 to 100 nM | 45 to 1500 nM | – | – | – |
| COCCn1cnc2ccc(Sc3cnc(N4CCC5(CC4)Cc4scnc4[C@@H]5N)cn3)c(Cl)c2c1=O [Example 150, 6-[5-[(4R)-4-aminospiro[4,6-dihydrocyclopenta[d]thiazole-5,4′-piperidin]-1′-yl]pyrazin-2-yl]sulfanyl-5-chloro-3-(2-methoxyethyl)quinazolin-4-one] | < 3 nM | 45 to 1500 nM | – | – | – |
| Cn1c(N2CCN(CCCN)CC2)nc(N)c(Sc2cccc(Cl)c2Cl)c1=O [Example 199, 6-amino-2-(4-(3-aminopropyl)piperazin-1-yl)-5-((2,3-dichlorophenyl)thio)-3-methylpyrimidin-4(3H)-one] | > 100 nM | > 1500 nM | – | – | – |
| Cn1c(N2CCC(C)(N)CC2)nc(N)c(Sc2ccc3nc[nH]c(=O)c3c2Cl)c1=O [Example 29, 6-((4-amino-2-(4-amino-4-methylpiperidin-1-yl)-1-methyl-6-oxo-1,6-dihydropyrimidin-5-yl)thio)-5-chloroquinazolin-4(3H)-one] | > 100 nM | > 1500 nM | – | – | – |
| CNS(=O)(=O)c1cccc(Sc2cnc(N3CCC(C)(N)CC3)cn2)c1Cl [Example 8, 3-((5-(4-amino-4-methylpiperidin-1-yl)pyrazin-2-yl)thio)-2-chloro-N-methylbenzenesulfonamide] | 3 to 100 nM | > 1500 nM | – | – | – |
| COCCn1cnc2ccc(Sc3cnc(N4CCC5(CC4)CO[C@@H](C)[C@H]5N)n4ccnc34)c(Cl)c2c1=O [Example 182, 6-((5-((3S,4S)-4-amino-3-methyl-2-oxa-8-azaspiro[4.5]decan-8-yl)imidazo[1,2-c]pyrimidin-8-yl)thio)-5-chloro-3-(2-methoxyethyl)quinazolin-4(3H)-one] | 3 to 100 nM | – | 45 to 1500 nM | – | – |
| C[C@@H]1OCC2(CCN(c3cnc(Sc4ccc5ncn(CC6=CCOCC6)c(=O)c5c4Cl)cn3)CC2)[C@@H]1N [Example 117, 6-((5-(3S,4S)-4-amino-3-methyl-2-oxa-8-azaspiro[4,5]decan-8-yl)pyrazin-2-yl)thio)-5-chloro-(3-((3,6-dihydro-2H-pyran-4-yl)methyl)quinazolin-4(3H)-one] | 3 to 100 nM | 45 to 1500 nM | – | – | – |
| C[C@@H]1OCC2(CCN(c3cnc(Sc4ccc5ncn(CCC(F)(F)F)c(=O)c5c4Cl)cn3)CC2)[C@@H]1N [Example 113] | < 3 nM | < 45 nM | – | – | – |
| C[C@@H]1OCC2(CCN(c3cnc(Sc4ccc5ncn(CC(O)CO)c(=O)c5c4Cl)cn3)CC2)[C@@H]1N (stereo partly drawn) [Example 122, 6-((5-((3S,4S)-4-amino-3-methyl-2-oxa-8-azaspiro[4,5]decan-8-yl)pyrazin-2-yl)thio)-5-chloro-3-(2,3-dihydroxypropyl)quinazolin-4(3H)-one] | < 3 nM | – | < 45 nM | – | – |
| CC(=O)Cn1cnc2ccc(Sc3cnc(N4CCC5(CC4)Cc4ncccc4[C@H]5N)cn3)c(Cl)c2c1=O [Example 112] | < 3 nM | – | < 45 nM | – | – |
| C[C@@H]1OCC2(CCN(c3cnc(Sc4ccc5ncn(Cc6ccccn6)c(=O)c5c4Cl)cn3)CC2)[C@@H]1N [Example 88, 6-((5-((3S,4S)-4-amino-3-methyl-2-oxa-8-azaspiro[4.5]decan-8-yl)pyrazin-2-yl)thio)-5-chloro-3-(pyridin-2-ylmethyl)quinazolin-4(3H)-one] | < 3 nM | < 45 nM | – | – | – |
| COCCn1cnc2ccc(Sc3cnc(N4CCC5(CC4)CO[C@@H](C)[C@H]5N)cn3)c(Cl)c2c1=O [Example 64, 6-((5-((3S,4S)-4-amino-3-methyl-2-oxa-8-azaspiro[4.5]decan-8-yl)pyrazin-2-yl)thio)-5-chloro-3-(2-methoxyethyl)quinazolin-4(3H)-one] | < 3 nM | < 45 nM | – | – | – |
| CC1(CN)CCN(c2cnc(Sc3ccc4ncn(Cc5ccc(S(=O)(=O)F)cc5)c(=O)c4c3Cl)cn2)CC1 [Example 17, 4-((6-((5-(4-(aminomethyl)-4-methylpiperidin-1-yl)pyrazin-2-yl)thio)-5-chloro-4-oxoquinazolin-3(4H)-yl)methyl)benzenesulfonyl fluoride] | – | – | – | 3 to 100 nM | 45 to 1500 nM |
| COCCn1cnc2ccc(Sc3cnc(N4CCC5(CCC[C@H]5N)CC4)cn3)c(Cl)c2c1=O [Example 180, (R)-6-((5-(1-amino-8-azaspiro[4.5]decan-8-yl)pyrazin-2-yl)thio)-5-chloro-3-(2-methoxyethyl)quinazolin-4(3H)-one] | < 3 nM | 45 to 1500 nM | – | – | – |
| C[C@@H]1OCC2(CCN(c3cnc(Sc4ccc5c(c4Cl)S(=O)(=O)N(Cc4ccccc4)C=N5)cn3)CC2)[C@@H]1N [Example 124, 7-((5-((3S,4S)-4-amino-3-methyl-2-oxa-8-azaspiro[4,5]decan-8-yl)pyrazin-2-yl)thio)-2-benzyl-8-chloro-2H-benzo[e][1,2,4]thiadiazine 1,1-dioxide] | < 3 nM | < 45 nM | – | – | – |
| C[C@@H]1OCC2(CCN(c3cnc(Sc4ccc5ncn(Cc6ccc7cc[nH]c7n6)c(=O)c5c4Cl)cn3)CC2)[C@@H]1N [Example 42, 3-((1H-pyrrolo[2,3-b]pyridin-6-yl)methyl)-6-((5-((3S,4S)-4-amino-3-methyl-2-oxa-8-azaspiro[4.5]decan-8-yl)pyrazin-2-yl)thio)-5-chloroquinazolin-4(3H)-one] | < 3 nM | < 45 nM | – | – | – |
| Cn1c(N2CCN(C[C@H](N)Cc3ccncc3)CC2)nc(N)c(Sc2cccc(Cl)c2Cl)c1=O [Example 186, (R)-6-amino-2-(4-(2-amino-3-(pyridin-4-yl)propyl)piperazin-1-yl)-5-((2,3-dichlorophenyl)thio)-3-methylpyrimidin-4(3H)-one] | > 100 nM | 45 to 1500 nM | – | – | – |
| C[C@@H]1OCC2(CCN(c3cnc(Sc4ccc5ncn(CC(N)=O)c(=O)c5c4Cl)cn3)CC2)[C@@H]1N [Example 97, 2-(6-((5-((3S,4S)-4-amino-3-methyl-2-oxa-8-azaspiro[4.5]decan-8-yl)pyrazin-2-yl)thio)-5-chloro-4-oxoquinazolin-3(4H)-yl)acetamide] | < 3 nM | < 45 nM | – | – | – |
| C[C@@H]1OCC2(CCN(c3cnc(Sc4ccc5ncn(Cc6ccn(C)n6)c(=O)c5c4Cl)cn3)CC2)[C@@H]1N [Example 53, 6-((5-((3S,4S)-4-amino-3-methyl-2-oxa-8-azaspiro[4.5]decan-8-yl)pyrazin-2-yl)thio)-5-chloro-3-((1-methyl-1H-pyrazol-3-yl)methyl)quinazolin-4(3H)-one] | 3 to 100 nM | < 45 nM | – | – | – |
| CC1(N)CCN(c2cnc(Sc3ccc4nc[nH]c(=O)c4c3Cl)cn2)CC1 [Example 4, 6-((5-(4-amino-4-methylpiperidin-1-yl)pyrazin-2-yl)thio)-5-chloroquinazolin-4(3H)-one] | 3 to 100 nM | 45 to 1500 nM | – | – | – |
| CC1(CN)CCN(c2cnc(Sc3ccc4ncn(Cc5cccc(S(=O)(=O)F)c5)c(=O)c4c3Cl)cn2)CC1 [Example 16, 3-((6-((5-(4-(aminomethyl)-4-methylpiperidin-1-yl)pyrazin-2-yl)thio)-5-chloro-4-oxoquinazolin-3(4H)-yl)methyl)benzenesulfonyl fluoride] | – | – | – | < 3 nM | 45 to 1500 nM |
| C[C@@H]1OCC2(CCN(c3cnc(Sc4ccc5ncn(CC6(F)COC6)c(=O)c5c4Cl)cn3)CC2)[C@@H]1N [Example 80, 6-((5-((3S,4S)-4-amino-3-methyl-2-oxa-8-azaspiro[4.5]decan-8-yl)pyrazin-2-yl)thio)-5-chloro-3-((3-fluorooxetan-3-yl)methyl)quinazolin-4(3H)-one] | < 3 nM | < 45 nM | – | – | – |
| COCCn1cnc2ccc(Sc3ncc(N4CCC5(CC4)Cc4ncccc4[C@H]5N)nc3N)c(Cl)c2c1=O [Example 134] | 3 to 100 nM | 45 to 1500 nM | – | – | – |
| C[C@@H]1OCC2(CCN(c3cnc(Sc4ccc5ncn(Cc6ccc(N)nc6)c(=O)c5c4Cl)cn3)CC2)[C@@H]1N [Example 48, 6-((5-((3S,4S)-4-amino-3-methyl-2-oxa-8-azaspiro[4.5]decan-8-yl)pyrazin-2-yl)thio)-3-((6-aminopyridin-3-yl)methyl)-5-chloroquinazolin-4(3H)-one] | < 3 nM | < 45 nM | – | – | – |
| C[C@@H]1OCC2(CCN(c3cnc(Sc4ccc5c(c4Cl)C(=O)N(Cc4ccccc4)C5)cn3)CC2)[C@@H]1N [Example 133, 6-((5-((3S,4S)-4-amino-3-methyl-2-oxa-8-azaspiro[4,5]decan-8-yl)-pyrazin-2-yl)thio)-2-benzyl-7-chloroisoindolin-1-one] | 3 to 100 nM | 45 to 1500 nM | – | – | – |
